This test addresses T1, Human Polymorphonuclear Leukocyte Elastase (Homo sapiens, UniProt P08246).
T1 sequence (P08246 30-247 limits assumed): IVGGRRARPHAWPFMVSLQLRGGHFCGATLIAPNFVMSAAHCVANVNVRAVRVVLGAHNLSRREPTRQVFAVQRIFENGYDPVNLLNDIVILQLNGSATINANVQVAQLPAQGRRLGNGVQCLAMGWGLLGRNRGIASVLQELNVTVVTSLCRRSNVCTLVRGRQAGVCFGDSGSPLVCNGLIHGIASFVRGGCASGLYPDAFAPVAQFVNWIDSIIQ
Nature of the test: biochemical. The conditions noted are these: for IC50 / ED50: 50% inhibition of the enzyme activity 2 minutes after zero time, crude PMN extract, pH 7.5, 0.2 mM Boc-AAPAN; for IC50: read-out: ED50 (the source's name) (converted). How it is done: Protocol--Enzyme Assays for the Inhibition of Human Polymorphonuclear Leukocyte Elastase Via Hydrolysis of N-t-Boc-alanyl-alanyl-prolylalanine-p-nitroanilide Reagents:
0.05M TES (N-tris[hydroxymethyl]methyl-2-amino-ethanesulfonic acid) Buffer, pH 7.5.
0.2 mMN-t-Boc-alanyl -alanyl -prolyl-alanine-p-nitroanilide (Boc-AAPAN).
To prepare substrate, the solid (m.w. 550) was first dissolved in 10.0 ml DMSO. Buffer at pH 7.5 was then added to a final volume of 100 ml.
Crude extract of human polymorphonuclear leukocytes (PMN) containing elastase activity.
Inhibitors (cephalosporin sulfone esters) to be tested dissolved in DMSO just before use.
To 1.0 ml of 0.2 mM Boc-AAPAN in a cuvette, 0.01-0.1 ml of DMSO with or without inhibitor was added. After mixing, a measurement was taken at 410 mμ to detect any spontaneous hydrolysis due to presence of test compound. 0.05 Milliliters of PMN extract was then added and the ΔOD/min at 410 mμ was measured and recorded. Beckman model 35 spectrophotometer was used.
The elastase activity in the crude PMN extract may vary from one preparation to another. A control of each new batch is run, and the volume added in the assay procedure is adjusted according to activity.

pIC50: −log10 of the molar value. ≈ marks a conversion by molar mass, not a printed value. Where two headings read alike, the source gives them in different places.

One may read the pIC50 as the IC50 on a negative log10 scale, so that one unit is a factor of ten. The low end stands for a large IC50, the high end for a small IC50.

As for `CC(=O)OCC1=C(C(=O)OC(C)(C)C)N2C(=O)C(Cl)(Cl)C2S(=O)(=O)C1` (stereo not drawn), the IC50 (Table IIa) was 241 nM.
Same read-out and setting: in the case of `CC(=O)OCC1=C(C(=O)OC(C)(C)C)N2C(=O)C(F)(F)C2S(=O)(=O)C1` (stereo not drawn) it was 131 nM.
Turning to `COC1C(=O)N2C(C(=O)OC(C)(C)C)=C(COC(=O)c3ccccc3C(=O)O)CS(=O)(=O)C12` (stereo not drawn), the IC50 (Table II) was 1250 nM.
In the case of `COC1C(=O)N2C(C(=O)OCC=C(C)C)=C(COC(C)=O)CS(=O)(=O)C12` (stereo not drawn), the IC50 (Table II) is 2580 nM.
As for `COC1C(=O)N2C(C(=O)OC(C)(C)C)=C(COC(C)=O)C(CS(=O)(=O)c3ccccc3)S(=O)(=O)C12` (stereo not drawn), the IC50 (Table II) was 37.8 nM.
Still for that read-out and setting: in the case of `COC(=O)c1cccc(COC(=O)C2=C(C)CS(=O)(=O)C3C(OC)C(=O)N23)c1` (stereo not drawn) it was 733 nM.
On to `CO[C@H]1C(=O)N2C(C(=O)OC(C)(C)C)=C(CS(=O)(=O)c3ccccc3)CS(=O)(=O)C12` (single isomer, unassigned) [R1=OCH3, M=CH2SO2.phi., B=OtBu, Q=H, t-Butyl 3-phenylsulfonylmethyl-7α-methoxy-8-oxo-5-thia-1-azabicyclo[4.2.0]oct-2-ene-2-carboxylate-5,5-dioxide], for which the pIC50 is 6.36.
The same measure, in the same setting: in the case of `CO[C@H]1C(=O)N2C(C(=O)OC(C)(C)C)=C(C[S+]([O-])c3ccccc3)CS(=O)(=O)C12` (single isomer, unassigned) [R1=OCH3, M=CH2SO.phi., B=OtBu, Q=H, t-Butyl 3-phenylsulfinylmethyl-7α-methoxy-8-oxo-5-thia-1-azabicyclo[4.2.0]oct-2-ene-2-carboxylate-5,5-dioxide] it was 6.74.
In the case of `CCC1C(=O)N2C(C(=O)OC(C)(C)C)=C(COC(=O)CCC(=O)O)CS(=O)(=O)C12` (stereo not drawn) [R1=C2H5, M=CH2OCOCH2CH2COOH, B=OtBu, Q=H], the IC50 (Table II) was 1850 nM.
Regarding `CCC1C(=O)N2C(C(=O)OCc3ccccc3)=C(COC(C)=O)CS(=O)(=O)C12` (stereo not drawn) [R1=C2H5, M=CH2OCOCH3, B=OCH2.phi., Q=H], the IC50 (Table II) is 982 nM.
Same read-out and setting: in the case of `CCC1C(=O)N2C(C(=O)OC(C)(C)C)=C(COC(=O)NC(C)C(=O)O)CS(=O)(=O)C12` (stereo not drawn) [R1=C2H5, M=drawing 31, B=OtBu, Q=H] it was 2240 nM; in that of `CCC1C(=O)N2C(C(=O)OC(C)(C)C)=C(COC(=O)C(N)c3ccccc3)CS(=O)(=O)C12` (stereo not drawn) [R1=C2H5, M=drawing 32, B=OtBu, Q=H], 861 nM.
The compound `CC(=O)OCC1=C(C(=O)OC(C)(C)C)N2C(=O)[C@H](Cl)[C@H]2S(=O)(=O)C1` [R1=Cl, M=CH2OCOCH3, B=OtBu, Q=H, t-Butyl 3-acetyloxymethyl-7α-chloro-8-oxo-5-thia-1-azabicyclo[4.2.0]oct-2-ene-2-carboxylate-5.5-dioxide] gave a pIC50 of 7.28.
Compound `CC(=O)OCC1=C(C(=O)OC(C)(C)C)N2C(=O)[C@H](F)[C@H]2S(=O)(=O)C1` [R1=F, M=CH2OCOCH3, B=OtBu, Q=H, t-Butyl 3-acetyloxymethyl-7α-fluoro-8-oxo-5-thia-1-azabicyclo[4.2.0]oct-2-ene-2-carboxylate-5,5-dioxide] had a negative-log IC50 (pIC50) of 7.08.
Consider `CC(=O)OCC1=C(C(=O)OC(C)(C)C)N2C(=O)C(Oc3ccccc3)C2S(=O)(=O)C1` (stereo not drawn) [R1=OC6H5, M=CH2OCOCH3, B=OtBu, Q=H], for which the negative logarithm of the IC50 (pIC50) was 5.74.
`CO[C@H]1C(=O)N2C(C(=O)OC(C)(C)C)=C(CCl)CS(=O)(=O)C12` (stereo partly drawn) [R1=OCH3, M=CH2Cl, B=OtBu, Q=H, t-Butyl 3-chloromethyl-7α-methoxy-8-oxo-5-thia-1-azabicyclo[4.2.0]oct-2-ene-2-carboxylate-5,5-dioxide] gave an ED50 (Table II) of 0.15 µg/mL (≈ 0.426 µM).
`COCC1=C(C(=O)OC(C)(C)C)N2C(=O)[C@H](OC)C2S(=O)(=O)C1` (stereo partly drawn) [R1=OCH3, M=CH2OCH3, B=OtBu, Q=H] had a pIC50 of 6.06.
In the case of `CO[C@H]1C(=O)N2C(C(=O)OC(C)(C)C)=C(COC(=O)CCC(=O)O)CS(=O)(=O)C12` (stereo partly drawn) [R1=OCH3, M=CH2OCOCH2CH2COOH, B=OtBu, Q=H, t-Butyl 3-(3-[hydroxycarbonyl]Propanoyloxymethyl)-7α-methoxy-8-oxo-5-thia-1-azabicyclo[4.2.0]oct-2-ene-2-carboxylate-5,5-dioxide], the IC50 (Table II) was 231 nM.
Still for that read-out and setting: the result for `CNCC(=O)OCC1=C(C(=O)OC(C)(C)C)N2C(=O)C(OC)C2S(=O)(=O)C1` (stereo not drawn) [R1=OCH3, M=CH2OCOCH2NHCH3, B=OtBu, Q=H] reads 742 nM; that for `COC1C(=O)N2C(C(=O)N(C)C)=C(COC(C)=O)CS(=O)(=O)C12` (stereo not drawn) [R1=OCH3, M=CH2OCOCH3, B=N(CH3)2, Q=H], 1730 nM; that for `CO[C@H]1C(=O)N2C(C(=O)NCC(=O)OC(C)(C)C)=C(COC(C)=O)CS(=O)(=O)[C@H]12` [R1=OCH3, M=CH2OCOCH3, B=NHCH2COOtBu, Q=H, N-(t-Butoxycarbonyl)methyl 3-acetyloxymethyl-7α-methoxy-8-oxo-5-thia-1-azabicyclo[4.2.0]oct-2-ene-2-carboxamide-5,5 dioxide], 2080 nM.
`CO[C@H]1C(=O)N2C(C(=O)OCc3ccccc3)=C(COC(C)=O)CS(=O)(=O)[C@H]12` [R1=OCH3, M=CH2OCOCH3, B=OCH2.phi., Q=H, Benzyl 3-acetyloxymethyl-7α-methoxy-8-oxo-5-thia-1-azabicyclo[4.2.0]oct-2-ene-2-carboxylate-5,5-dioxide] gave a pIC50 of 7.14.
As to `COC1C(=O)N2C(C(=O)OCC(=O)C(C)(C)C)=C(COC(C)=O)CS(=O)(=O)C12` (stereo not drawn) [R1=OCH3, M=CH2OCOCH3, B=OCH2COtBu, Q=H], the IC50 (Table II) was 47.9 nM.
On to `COC(=O)C1=C(COC(C)=O)CS(=O)(=O)C2C(OC)C(=O)N12` (stereo not drawn) [R1=OCH3, M=CH2OCOCH3, B=OCH3, Q=H], for which the pIC50 was 6.62.
Regarding `C=C1C(COC(C)=O)=C(C(=O)OC(C)(C)C)N2C(=O)[C@H](OC)[C@H]2S1(=O)=O` [R1=OCH3, M=CH2OCOCH3, B=OtBu, Q=CH2, t-Butyl 3-acetyloxymethyl-7α-methoxy-4-methylene-8-oxo-5-thia-1-azabicyclo [4.2.0]oct-2-ene-2-carboxylate-5,5-dioxide], the IC50 (Table II) was 77.4 nM.
As for `COC1C(=O)N2C(C(=O)OC(C)(C)C)=C(COC(C)=O)C(Cc3ccccc3)S(=O)(=O)C12` (stereo not drawn) [R1=OCH3, M=CH2OCOCH3, B=OtBu, Q=CH2.phi.], for the setting “Table II”, the IC50 was 32200 nM.
The same measure, in the same setting: the result for `CO[C@H]1C(=O)N2C(C(=O)OC(C)(C)C)=C(COC(C)=O)C(C)S(=O)(=O)[C@H]12` (stereo partly drawn) [R1=OCH3, M=CH2OCOCH3, B=OtBu, Q=CH3] reads 77 nM; that for `CO[C@H]1C(=O)N2C(C(=O)OC(C)(C)C)=C(COC(C)=O)CS(=O)(=O)[C@H]12` [R1=OCH3, M=CH2OCOCH3, B=OtBu, Q=H, t-Butyl-3-acetyloxymethyl-7α-methoxy-8-oxo-5-thia-1-azabicyclo[4.2.0]oct-2-ene-2-carboxylate-5,5-dioxide], 1330 nM; that for `COC1C(=O)N2C(C(=O)N3CCC[C@H]3C(=O)O)=C(COC(C)=O)CS(=O)(=O)C12` (stereo partly drawn) [R1=OCH3, M=CH2OCOCH3, B=drawing 33, Q=H], 12000 nM.
Regarding `CO[C@H]1C(=O)N2C(C(=O)OC(C)(C)C)=C(COC(=O)NCC(=O)O)CS(=O)(=O)C12` (stereo partly drawn) [R1=OCH3, M=CH2OCONHCH2COOH, B=OtBu, Q=H, t-Butyl 3-hydroxycarbonylmethylaminocarbonyloxymethyl-7α-methoxy-8-oxo-5-thia-1-azabicyclo[4.2.0]oct-2-ene-2-carboxylate-5,5-dioxide], the IC50 (Table II) is 92.1 nM.
Still for that read-out and setting: in the case of `CCOC(=O)OCC1=C(C(=O)OC(C)(C)C)N2C(=O)C(OC)C2S(=O)(=O)C1` (stereo not drawn) [R1=OCH3, M=CH2OCOOC2H5, B=OtBu, Q=H] it was 740 nM; in that of `COC1C(=O)N2C(C(=O)OC(C)(C)C)=C(CO)CS(=O)(=O)C12` (stereo not drawn) [R1=OCH3, M=CH2OH, B=OtBu, Q=H], 2400 nM.
The compound `CO[C@H]1C(=O)N2C(C(=O)OC(C)(C)C)=C(CSc3ccccc3)CS(=O)(=O)C12` (stereo partly drawn) [R1=OCH3, M=CH2S.phi., B=OtBu, Q=H, t-Butyl 3-phenylthiomethyl-7α-methoxy-8-oxo-5-thia-1-azabicyclo[4.2.0]oct-2-ene-2-carboxylate-5,5-dioxide] showed an ED50 (Table II) of 0.4 µg/mL (≈ 0.94 µM).
`COC1C(=O)N2C(C(=O)OC(C)(C)C)=C(CS(C)(=O)=O)CS(=O)(=O)C12` (stereo not drawn) [R1=OCH3, M=CH2SO2CH3, B=OtBu, Q=H]: under “Table II”, the IC50 was 253 nM.
`CCOC(=O)COC(=O)C1=C(C)CS(=O)(=O)C2C(OC)C(=O)N12` (stereo not drawn) [R1=OCH3, M=CH3, B=OCH2COOC2H5, Q=H]: where the note is “Table II”, the IC50 was 1440 nM.
As for `CO[C@H]1C(=O)N2C(C(=O)OC(C)(C)C)=C(C)CS(=O)(=O)C12` (stereo partly drawn) [R1=OCH3, M=CH3, B=OtBu, Q=H, t-Butyl 3-methyl-7α-methoxy-8-oxo-5-thia-1-azabicyclo [4.2.0]oct-2-ene-2-carboxylate-5,5-dioxide], the ED50 (Table II) was 1.0 µg/mL (≈ 3.15 µM).

The values are drawn from US5364848A, “Substituted cephalosporin sulfones as anti-inflammatory and antidegenerative agents” (Merck & Co., Inc., priority 1992, dated 1994).
